In ChEMBL document CHEMBL1909046, “DrugMatrix in vitro pharmacology data”:

Tests used:
[1] = target: Matrix metalloproteinase-9 (Homo sapiens, UniProt P14780); assay type: cell-based;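 note: inhibition of isolated MMP-9 enzyme activity toward a synthetic peptide substrate, from the DrugMatrix protease screening panel; in other assays of this panel Not Active means under 50% inhibition at 10 µM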
[2] = target: T1, Muscarinic acetylcholine receptor M4 (Homo sapiens, UniProt P08173); assay type: cell membranes, CHO-K1, Membrane; settings: for Ki: read-out: Ki; for all read-outs here: in other assays of this panel Not Active means under 50% inhibition at 10 µM
T1 sequence (P08173 whole entry): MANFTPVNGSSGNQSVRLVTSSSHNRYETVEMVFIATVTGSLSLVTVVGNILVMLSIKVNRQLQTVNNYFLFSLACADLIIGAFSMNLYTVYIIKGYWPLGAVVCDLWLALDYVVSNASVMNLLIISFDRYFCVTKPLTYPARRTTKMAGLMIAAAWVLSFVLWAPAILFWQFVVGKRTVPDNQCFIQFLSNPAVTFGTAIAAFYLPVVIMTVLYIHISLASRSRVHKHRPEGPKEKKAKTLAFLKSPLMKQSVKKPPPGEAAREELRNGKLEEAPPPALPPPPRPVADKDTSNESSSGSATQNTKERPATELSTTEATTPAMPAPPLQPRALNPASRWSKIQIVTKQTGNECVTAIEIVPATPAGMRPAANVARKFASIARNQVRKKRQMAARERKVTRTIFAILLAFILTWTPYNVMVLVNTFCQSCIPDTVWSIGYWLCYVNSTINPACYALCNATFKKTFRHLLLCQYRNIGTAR

[3] = target: T2, Nitric oxide synthase, inducible (Mus musculus, UniProt P29477); parameters: species or system Escherichia coli;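 note: inhibition of iNOS enzyme activity measured with L-arginine as substrate; in other assays of this panel Not Active means under 50% inhibition at 10 µM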
T2 sequence (P29477 whole entry): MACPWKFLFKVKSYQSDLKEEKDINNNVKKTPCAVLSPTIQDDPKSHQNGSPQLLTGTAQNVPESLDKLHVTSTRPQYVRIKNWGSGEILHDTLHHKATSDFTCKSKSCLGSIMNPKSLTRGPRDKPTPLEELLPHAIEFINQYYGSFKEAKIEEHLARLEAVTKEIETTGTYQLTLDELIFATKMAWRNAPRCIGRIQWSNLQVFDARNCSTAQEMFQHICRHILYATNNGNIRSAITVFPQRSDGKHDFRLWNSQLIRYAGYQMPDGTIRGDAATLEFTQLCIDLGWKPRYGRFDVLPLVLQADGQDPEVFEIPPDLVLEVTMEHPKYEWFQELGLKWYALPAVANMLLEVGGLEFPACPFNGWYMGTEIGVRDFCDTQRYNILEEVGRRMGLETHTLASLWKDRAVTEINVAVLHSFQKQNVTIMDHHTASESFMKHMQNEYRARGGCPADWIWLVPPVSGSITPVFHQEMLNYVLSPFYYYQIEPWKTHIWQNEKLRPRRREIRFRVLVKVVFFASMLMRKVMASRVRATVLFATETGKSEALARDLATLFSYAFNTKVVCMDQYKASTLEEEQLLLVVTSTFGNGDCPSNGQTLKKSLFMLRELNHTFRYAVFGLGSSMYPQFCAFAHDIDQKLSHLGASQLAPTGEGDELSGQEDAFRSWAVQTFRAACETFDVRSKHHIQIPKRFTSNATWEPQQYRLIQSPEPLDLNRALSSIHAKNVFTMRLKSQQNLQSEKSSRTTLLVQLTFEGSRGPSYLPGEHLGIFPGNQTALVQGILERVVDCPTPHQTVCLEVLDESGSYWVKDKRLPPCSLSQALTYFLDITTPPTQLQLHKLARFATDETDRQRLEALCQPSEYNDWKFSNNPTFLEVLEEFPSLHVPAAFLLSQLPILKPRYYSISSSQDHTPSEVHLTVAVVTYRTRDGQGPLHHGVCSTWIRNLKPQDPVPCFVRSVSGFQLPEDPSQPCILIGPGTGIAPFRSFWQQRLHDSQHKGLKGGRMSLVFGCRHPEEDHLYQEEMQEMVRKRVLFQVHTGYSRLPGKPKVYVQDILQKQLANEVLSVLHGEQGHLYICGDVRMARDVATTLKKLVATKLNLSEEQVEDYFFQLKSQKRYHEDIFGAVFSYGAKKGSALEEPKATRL

[4] = DRUGMATRIX: Phosphodiesterase PDE3 enzyme inhibition (substrate: [3H]cAMP + cAMP); assay type: tissue-based, Homo sapiens; settings: platelet; Not Active = under 50% inhibition at 10 µM
[5] = target: T3, Cathepsin G (Homo sapiens, UniProt P08311); assay type: tissue-based; settings: neutrophil;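 note: inhibition of Cathepsin G enzyme activity, tested on an AMC-conjugated peptide substrate; in other assays of this panel Not Active means under 50% inhibition at 10 µM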
T3 sequence (P08311 whole entry): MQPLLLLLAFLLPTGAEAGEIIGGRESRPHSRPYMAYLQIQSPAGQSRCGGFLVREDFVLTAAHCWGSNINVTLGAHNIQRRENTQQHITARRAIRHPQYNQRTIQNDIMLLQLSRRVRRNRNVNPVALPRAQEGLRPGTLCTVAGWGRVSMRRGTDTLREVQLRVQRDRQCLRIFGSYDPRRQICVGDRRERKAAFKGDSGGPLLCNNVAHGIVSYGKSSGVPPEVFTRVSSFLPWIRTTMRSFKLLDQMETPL

[6] = target: D(1A) dopamine receptor (Homo sapiens, UniProt P21728); assay: DRUGMATRIX: Dopamine D1 radioligand binding (ligand: [3H] SCH-23390); assay type: cell membranes, CHO, Membrane; settings: cho; Not Active = under 50% inhibition at 10 µM
Sequence of D(1A) dopamine receptor (P21728 whole entry): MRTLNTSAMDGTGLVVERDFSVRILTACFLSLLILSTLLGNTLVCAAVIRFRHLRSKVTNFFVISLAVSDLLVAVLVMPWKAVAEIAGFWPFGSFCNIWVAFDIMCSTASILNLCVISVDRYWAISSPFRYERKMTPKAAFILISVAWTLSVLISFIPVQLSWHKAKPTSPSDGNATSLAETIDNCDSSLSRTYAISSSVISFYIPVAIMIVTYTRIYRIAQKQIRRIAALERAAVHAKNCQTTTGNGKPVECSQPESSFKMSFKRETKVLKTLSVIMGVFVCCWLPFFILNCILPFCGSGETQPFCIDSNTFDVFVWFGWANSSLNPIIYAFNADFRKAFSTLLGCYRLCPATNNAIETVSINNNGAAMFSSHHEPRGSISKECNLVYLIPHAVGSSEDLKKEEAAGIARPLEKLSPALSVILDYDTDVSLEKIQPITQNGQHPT

[7] = DRUGMATRIX: Purinergic P2X radioligand binding (ligand: [3H] alpha, beta-Methylene-ATP); assay type: cell membranes, Oryctolagus cuniculus, New Zealand albino, Urinary bladder, Membrane; settings: Not Active = under 50% inhibition at 10 µM
[8] = target: Epidermal growth factor receptor (Homo sapiens, UniProt P00533); assay: DRUGMATRIX: Protein Tyrosine Kinase, EGF Receptor enzyme inhibition (substrate: Poly(Glu:Tyr)); assay type: cell-based, Insect cells; settings: Not Active = under 50% inhibition at 10 µM
Sequence of Epidermal growth factor receptor (P00533 whole entry): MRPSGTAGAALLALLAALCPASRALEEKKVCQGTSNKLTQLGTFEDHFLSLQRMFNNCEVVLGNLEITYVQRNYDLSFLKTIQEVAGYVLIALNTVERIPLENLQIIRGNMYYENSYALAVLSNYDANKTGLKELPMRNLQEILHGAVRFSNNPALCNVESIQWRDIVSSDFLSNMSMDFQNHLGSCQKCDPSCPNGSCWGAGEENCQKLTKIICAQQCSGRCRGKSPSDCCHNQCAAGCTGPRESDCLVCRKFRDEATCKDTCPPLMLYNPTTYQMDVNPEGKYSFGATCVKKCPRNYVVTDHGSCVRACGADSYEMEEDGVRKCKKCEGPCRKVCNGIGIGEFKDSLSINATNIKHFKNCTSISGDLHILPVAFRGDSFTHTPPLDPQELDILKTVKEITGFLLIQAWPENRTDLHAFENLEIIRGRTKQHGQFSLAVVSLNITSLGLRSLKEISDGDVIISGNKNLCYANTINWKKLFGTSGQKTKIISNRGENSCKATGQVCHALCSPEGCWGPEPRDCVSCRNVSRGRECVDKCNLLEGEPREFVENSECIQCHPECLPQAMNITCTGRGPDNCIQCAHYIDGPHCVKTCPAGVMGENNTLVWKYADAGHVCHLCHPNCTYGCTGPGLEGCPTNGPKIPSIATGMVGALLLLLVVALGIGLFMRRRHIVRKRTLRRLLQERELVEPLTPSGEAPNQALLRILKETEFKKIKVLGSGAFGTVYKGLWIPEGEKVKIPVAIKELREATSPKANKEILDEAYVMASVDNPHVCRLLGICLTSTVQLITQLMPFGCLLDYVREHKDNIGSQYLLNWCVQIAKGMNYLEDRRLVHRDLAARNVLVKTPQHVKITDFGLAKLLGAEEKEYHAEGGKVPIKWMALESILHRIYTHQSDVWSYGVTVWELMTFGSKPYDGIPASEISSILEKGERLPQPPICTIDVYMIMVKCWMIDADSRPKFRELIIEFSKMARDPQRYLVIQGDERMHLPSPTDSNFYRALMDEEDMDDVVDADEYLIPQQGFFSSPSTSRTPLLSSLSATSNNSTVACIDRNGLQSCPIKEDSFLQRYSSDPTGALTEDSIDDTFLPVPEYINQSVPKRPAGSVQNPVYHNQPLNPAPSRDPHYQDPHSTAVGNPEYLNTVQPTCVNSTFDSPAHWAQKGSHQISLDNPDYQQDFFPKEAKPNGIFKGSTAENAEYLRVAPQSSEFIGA

[9] = target: T4, Alpha-1B adrenergic receptor (Rattus norvegicus, UniProt P15823); assay: DRUGMATRIX: Alpha-1B adrenergic receptor radioligand binding (ligand: prazosin); assay type: cell membranes, Wistar, Liver, Membrane; settings: Not Active = under 50% inhibition at 10 µM
T4 sequence (P15823 whole entry): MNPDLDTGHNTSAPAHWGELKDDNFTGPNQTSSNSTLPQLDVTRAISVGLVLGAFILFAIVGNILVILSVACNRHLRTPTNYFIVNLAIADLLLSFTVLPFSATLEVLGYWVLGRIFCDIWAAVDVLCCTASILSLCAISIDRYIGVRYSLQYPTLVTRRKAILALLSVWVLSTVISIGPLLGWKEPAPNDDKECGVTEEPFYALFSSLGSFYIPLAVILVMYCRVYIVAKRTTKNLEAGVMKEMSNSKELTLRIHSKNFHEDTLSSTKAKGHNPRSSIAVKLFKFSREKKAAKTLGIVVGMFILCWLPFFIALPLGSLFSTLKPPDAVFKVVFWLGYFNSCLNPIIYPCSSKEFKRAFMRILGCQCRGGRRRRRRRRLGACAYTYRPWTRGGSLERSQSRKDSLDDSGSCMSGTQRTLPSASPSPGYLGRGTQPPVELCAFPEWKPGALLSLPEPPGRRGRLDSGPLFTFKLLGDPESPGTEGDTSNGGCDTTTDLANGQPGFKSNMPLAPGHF

[10] = target: Protein kinase C alpha type (Homo sapiens, UniProt P17252); assay type: cell-based; settings: sf9

Sequence of Matrix metalloproteinase-9 (P14780 whole entry): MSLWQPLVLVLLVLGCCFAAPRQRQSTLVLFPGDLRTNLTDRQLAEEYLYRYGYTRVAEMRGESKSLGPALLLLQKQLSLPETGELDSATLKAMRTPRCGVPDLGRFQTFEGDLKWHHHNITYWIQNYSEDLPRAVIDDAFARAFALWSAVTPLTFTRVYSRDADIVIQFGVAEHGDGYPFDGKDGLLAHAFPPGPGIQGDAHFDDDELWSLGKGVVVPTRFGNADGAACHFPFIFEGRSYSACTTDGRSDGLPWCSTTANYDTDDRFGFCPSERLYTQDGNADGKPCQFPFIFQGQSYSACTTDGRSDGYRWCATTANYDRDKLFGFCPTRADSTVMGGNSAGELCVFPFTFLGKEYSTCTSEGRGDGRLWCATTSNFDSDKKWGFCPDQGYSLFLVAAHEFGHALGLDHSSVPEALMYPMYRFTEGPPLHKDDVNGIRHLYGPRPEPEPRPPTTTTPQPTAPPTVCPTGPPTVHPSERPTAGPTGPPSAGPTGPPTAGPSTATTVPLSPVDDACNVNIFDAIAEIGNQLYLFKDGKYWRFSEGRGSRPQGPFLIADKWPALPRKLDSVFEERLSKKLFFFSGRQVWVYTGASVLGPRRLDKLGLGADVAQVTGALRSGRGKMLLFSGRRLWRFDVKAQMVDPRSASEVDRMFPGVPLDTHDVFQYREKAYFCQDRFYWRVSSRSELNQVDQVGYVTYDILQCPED

Row | SMILES | IC50 [1] | IC50 ([2]; cho-k1) | IC50 [3] | IC50 [4] | Ki [4] | IC50 [5] | IC50 [6] | IC50 [7] | Ki [7] | IC50 ([8]; insect cells) | IC50 [9] | IC50 [10] | IC50 ([2]; read-out: IC50) | Ki [2] | IC50 ([8]; read-out: IC50)
1 | NCCCC[C@H](N[C@@H](CCc1ccccc1)C(=O)O)C(=O)N1CCC[C@H]1C(=O)O [LISINOPRIL ANHYDROUS] | Not Active | Not Active | Not Active | Not Active | Not Active | Not Active | Not Active | Not Active | Not Active | Not Active | Not Active | Not Active |  |  | 
2 | CN1[C@@H]2CC[C@H]1C[C@@H](OC(=O)c1c[nH]c3ccccc13)C2 [TROPISETRON] | Not Active | Not Active | Not Active | Not Active | Not Active | Not Active | Not Active | Not Active | Not Active | Not Active | Not Active | Not Active |  |  | 
3 | CC(=O)[C@H]1CC[C@H]2[C@@H]3CCC4=CC(=O)CC[C@]4(C)[C@H]3CC[C@]12C [PROGESTERONE] | Not Active | Not Active | Not Active | Not Active | Not Active | Not Active | Not Active | Not Active | Not Active | Not Active | Not Active | Not Active |  |  | 
4 | COc1cccc(C2(O)CCCCC2CN(C)C)c1 (configuration not stated) [TRAMADOL] | Not Active | Not Active | Not Active |  |  | Not Active |  |  |  | Not Active |  | Not Active |  |  | 
5 | C[C@](N)(Cc1ccc(O)cc1)C(=O)O [METYROSINE] | Not Active | Not Active | Not Active | Not Active | Not Active | Not Active | Not Active | Not Active | Not Active | Not Active | Not Active | Not Active |  |  | 
6 | CC1(C)[C@H]2CC[C@]1(C)C(=O)C2 [(-)-CAMPHOR] | Not Active | Not Active | Not Active | Not Active | Not Active | Not Active | Not Active | Not Active | Not Active | Not Active | Not Active | Not Active |  |  | 
7 | C=CC[C@@H]1/C=C(\C)C[C@H](C)C[C@H](OC)[C@H]2O[C@@](O)(C(=O)C(=O)N3CCCC[C@H]3C(=O)O[C@H](/C(C)=C/[C@@H]3CC[C@@H](O)[C@H](OC)C3)[C@H](C)[C@@H](O)CC1=O)[C@H](C)C[C@@H]2OC [TACROLIMUS ANHYDROUS] | Not Active | Not Active | Not Active | Not Active | Not Active | Not Active | Not Active | Not Active | Not Active | Not Active | Not Active | Not Active |  |  | 
8 | CN(C)CCCN1c2ccccc2CCc2ccc(Cl)cc21 [CLOMIPRAMINE] | Not Active |  | Not Active |  |  | Not Active |  |  |  | Not Active |  | Not Active | 91 nM | 13 nM | 
9 | CC(C)(O)c1ccccc1CC[C@@H](SCC1(CC(=O)O)CC1)c1cccc(/C=C/c2ccc3ccc(Cl)cc3n2)c1 [MONTELUKAST] | Not Active | Not Active | Not Active |  |  | Not Active |  |  |  |  |  | Not Active |  |  | 3200 nM
10 | Clc1ccccc1C(c1ccccc1)(c1ccccc1)n1ccnc1 [CLOTRIMAZOLE] | Not Active |  | Not Active |  |  | Not Active |  |  |  |  |  | Not Active |  | 1640 nM | 69400 nM
11 | CSc1ccc2c(c1)N(CCC1CCCCN1C)c1ccccc1S2 (configuration not stated) [THIORIDAZINE] | Not Active |  | Not Active |  |  | Not Active |  |  |  |  |  | Not Active |  |  | 2950 nM
12 | COc1ccc(CCN2CCC(Nc3nc4ccccc4n3Cc3ccc(F)cc3)CC2)cc1 [ASTEMIZOLE] | Not Active |  | Not Active |  |  | Not Active |  |  |  |  |  | Not Active | 1860 nM | 259 nM | 6060 nM
13 | O=C(CCCN1CCC(O)(c2ccc(Cl)cc2)CC1)c1ccc(F)cc1 [HALOPERIDOL] | Not Active | Not Active | Not Active |  |  | Not Active |  |  |  | Not Active |  | Not Active |  |  | 
14 | CN1CCN2c3ccccc3Cc3ccccc3C2C1 (configuration not stated) [MIANSERIN] | Not Active |  | Not Active |  |  | Not Active |  |  |  | Not Active |  | Not Active | 2070 nM | 288 nM | 
